{"source": "patent US20070032469A1", "about": "“Tricyclic benzimidazoles and their use as metabotropic glutamate receptor modulators” (AstraZeneca AB, priority 2005, published 2007)", "data": [{"target": "T1, human mGluR2 (Homo sapiens, UniProt Q14416)", "T1 construct": "fused on or other part: If FLIPR: the intracellular domain of the human calcium receptor (CASR, P41180) in place of mGluR2's own, and the promiscuous chimeric G protein Gaqi5 fused on; If GTPgammaS: nothing", "T1 sequence (Q14416 19-819 limits assumed)": "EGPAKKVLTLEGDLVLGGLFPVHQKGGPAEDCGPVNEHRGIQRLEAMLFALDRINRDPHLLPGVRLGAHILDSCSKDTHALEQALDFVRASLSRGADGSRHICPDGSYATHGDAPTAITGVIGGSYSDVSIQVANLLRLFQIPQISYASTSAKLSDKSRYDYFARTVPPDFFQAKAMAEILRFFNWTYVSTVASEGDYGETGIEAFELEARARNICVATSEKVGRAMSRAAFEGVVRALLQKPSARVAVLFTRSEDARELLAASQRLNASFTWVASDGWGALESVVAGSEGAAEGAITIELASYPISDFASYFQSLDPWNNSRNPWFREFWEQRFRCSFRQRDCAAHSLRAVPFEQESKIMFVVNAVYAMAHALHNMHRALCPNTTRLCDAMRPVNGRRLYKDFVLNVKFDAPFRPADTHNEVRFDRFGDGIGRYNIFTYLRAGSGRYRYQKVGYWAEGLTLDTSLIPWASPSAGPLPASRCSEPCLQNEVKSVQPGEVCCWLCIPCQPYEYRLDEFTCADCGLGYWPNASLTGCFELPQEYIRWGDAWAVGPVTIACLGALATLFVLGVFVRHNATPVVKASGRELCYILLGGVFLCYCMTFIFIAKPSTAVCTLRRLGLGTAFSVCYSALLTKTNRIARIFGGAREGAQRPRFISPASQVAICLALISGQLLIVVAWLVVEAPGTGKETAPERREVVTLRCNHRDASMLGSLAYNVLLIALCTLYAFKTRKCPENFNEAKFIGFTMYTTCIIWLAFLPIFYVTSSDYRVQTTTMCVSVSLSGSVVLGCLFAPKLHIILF", "experiment": "mGluR2 potentiator assays described herein (FLIPR calcium mobilization in HEK 293 cells expressing chimeric mGluR2/CaR, or [35S]-GTPγS binding with CHO membranes)", "type": "cell-based", "settings": "active in the assays described herein; which assay (FLIPR or GTPγS) is not stated", "text": "The pharmacological properties of the compounds of the invention can be analyzed using standard assays for functional activity. Examples of glutamate receptor assays are well known in the art as described in, for example, Aramori et al., 1992, Neuron, 8:757; Tanabe et al., 1992, Neuron, 8:169; Miller et al., 1995, J. Neuroscience, 15:6103; Balazs, et al., 1997, J. Neurochemistry, 1997,69:151. The methodology described in these publications is incorporated herein by reference. Conveniently, the compounds of the invention can be studied by means of an assay that measures the mobilization of intracellular calcium, [Ca^2+]i in cells expressing mGluR2.\nFluorometric Imaging Plate Reader (FLIPR) analysis was used to detect allosteric activators of mGluR2 via calcium mobilization. A clonal HEK 293 cell line expressing a chimeric mGluR2/CaR construct comprising the extracellular and transmembrane domains of human mGluR2 and the intracellular domain of the human calcium receptor, fused to the promiscuous chimeric protein Gaqi5 was used. […] At 24-hours prior to analysis, the cells were trypsinized and plated in DMEM at 100,000 cells/well in black sided, clear-bottom, collagen I coated, 96-well plates. The plates were incubated under 5% CO2 at 37° C. overnight. Cells were loaded with 6 μM fluo-3 acetoxymethylester (Molecular Probes, Eugene Oreg.) for 60 min. at room temperature. All assays were performed in a buffer containing 126 mM NaCl, 5 mM KCl, 1 mM MgCl2, 1 mM CaCl2, 20 mM Hepes, 0.06 μM DCG-IV (a Group II mGluR selective agonist), supplemented with 1.0 mg/ml D-glucose and 1.0 mg/ml BSA fraction IV (pH 7.4).\nFLIPR experiments were done using a laser setting of 0.8 W and a 0.4 second CCD camera shutter speed. Extracellular fluo-3 was washed off and cells were maintained in 160 μL of buffer and placed in the FLIPR. An addition of test compound (0.01 μM to 30 μM in duplicate) was made after 10 seconds of baseline fluorescent readings were recorded on FLIPR. Fluorescent signals were then recorded for an additional 75 seconds at which point a second addition of DCG-IV (0.2 μM) was made and fluorescent signals were recorded for an additional 65 seconds. Fluorescent signals were measured as the peak height of the response within the sample period. Data was analyzed using Assay Explorer, and EC50 and Emax values (relative to maximum DCG-IV effect) were calculated using a four parameter logistic equation.\nA [^35S]-GTPγS binding assay was used to functionally assay mGluR2 receptor activation. The allosteric activator activity of compounds at the human mGluR2 receptor was measured using a [^35S]-GTPγS binding assay with membranes prepared from CHO cells which stably express the human mGluR2. The assay is based upon the principle that agonists bind to G-protein coupled receptors to stimulate GDP-GTP exchange at the G-protein. Since [^35S]-GTPγS is a non-hydrolyzable GTP analog, it can be used to provide an index of GDP-GTP exchange and, thus, receptor activation. The GTPγS binding assay therefore provides a quantitative measure of receptor activation.\nMembranes were prepared from CHO cells stably transfected with human mGluR2. […] The amount of radioactivity bound was determined by counting plates on the Packard TopCount. […]", "units": {"EC50": "nM"}, "values": [{"molecule": "CC1CCc2cc(F)cc3nc(CN4CCC(Oc5ccccc5Cl)CC4)n1c23", "note": "(centres unmarked) [Example 26.55, 8-fluoro-4-methyl-2-[4-(2-chlorophenoxy)-piperidin-1-ylmethyl]-5,6-dihydro-4H-imidazo[4,5,1-ij]quinoline]", "EC50": 370}, {"molecule": "CC1CCc2cc(F)cc3nc(CN4CCN(c5ccc(F)cc5)CC4)n1c23", "note": "(centres unmarked) [Example 26.56, 8-fluoro-4-methyl-2-{[4(4-fluorophenyl)piperizin-1-yl]methyl}-5,6-dihydro-4H-imidazo[4,5,1-ij]quinoline]", "EC50": 1580}, {"molecule": "CC1CCc2cc(F)cc3nc(CN4CC=C(c5ccc(OC(F)(F)F)cc5)CC4)n1c23", "note": "(centres unmarked) [Example 26.65, 8-fluoro-4-methyl-2-{[4-(4-trifluoromethoxyphenyl)-3,6-dihydropyridin-1(2H)-yl]methyl}-5,6-dihydro-4H-imidazo[4,5,1-ij]quinoline]", "EC50": 80}, {"molecule": "Fc1ccc(C2CCN(Cc3nc4cccc5c4n3CCO5)CC2)cc1", "note": "[Example 26.69]", "EC50": 230}, {"molecule": "O=C1CCN2C(CN3CCC(c4ccc(F)cc4)CC3)=NC3C=C(F)C=C1C32", "note": "(centres unmarked) [Example 28.1, 8-Fluoro-2-[4-(4-fluoro-phenyl)-piperidin-1-ylmethyl]-4,5,9a,9b-tetrahydroimidazo[4,5,1-ij]quinolin-6-one]", "EC50": 1110}]}]}
